Common to all, as to assay type: cell-based
For one experiment, the system named is Rac1. The experiment can be described thus: Rac1 localization to plasma membrane and lamellipodia formation by cRGT. The text has this:
A constitutively active mutant EGFP-NES-Rac1Q61LΔCAAX (G-NES-Rac1 for short, green, cytoplasmic distribution) without the plasma membrane targeting ability and lacking the CAAX-box sequence and mCherry-eDHFR-CAAX (red, plasma membrane localized), being co-expressed in living HeLa cells; treatment of the HeLa cells with cRGT will localize the Rac1 mutant to the functional location of the plasma membrane, which in turn induces a signaling cascade process during lamellipodia formation. Confocal micrographs of representative living HeLa cells co-expressing G-NES-Rac1 and mCherry-eDHFR-CAAX, before treatment with cRGT (Pre), after treatment with 24 μM cRGT, and after addition of TMP at a final concentration of 10 μM. Statistical analysis of colocalization between the EGFP channel and the mCherry channel by PCC were shown. Statistical analysis of cell areas before treatment with cRGT (Pre), after treatment with 24 μM cRGT, and after treatment with TMP at a final concentration of 10 μM was also shown. […] Curve comparison of streak analysis of cells after dimerization induced by cRGT and TMP-Cl. […] Abbreviations in the pictures: mCherry is abbreviated as mChe or R; EGFP is abbreviated as G; mTurquoise2 is abbreviated as mTurq or C; eDHFR is abbreviated as ED; HaloTag is abbreviated as HT. All scales: 10 μm. […]

In another experiment the test system is EGFP in HeLa cells. As to the kind of experiment: Localization of EGFP to subcellular structures. The conditions noted are these: TMP 10 μM, 10 min. The procedure:
Treatment of living cells with an SNACIP inducer of dimerization for microscopic imaging: Unless otherwise specified, first a DMEM complete medium of the cells is replaced with a phenol red-free imaging medium of the SNACIP inducer of dimerization of the corresponding concentration, and then imaging is performed after incubation for a given period of time. For cRGT, the concentration represents an effective ratio of cRGT; and near-complete dimerization regulation may be achieved without washing off excess cRGT before imaging.
Many cellular processes are regulated by dynamic distribution of proteins in the cell.

The next experiment has as its system mEYFP. The experiment can be described thus: Regulation of GFP mutant mEYFP localization. The following applies: TMP 10 μM, 10 min. The text has this:
Yellow fluorescent protein mEYFP and turquoise fluorescent protein mTurquoise2 are close mutants of the GFP. […] This is an interesting phenomenon, but can also be reasonably explained: Asn146 in GFP, a residue that has a key hydrogen-bonding interaction with the Asn99 residue of GBP, is retained in EGFP and mEYFP, but is mutated to Ile146 in mTurquoise2. […] Therefore, cRGT is an all-rounder, can regulate the proteins of interest to which EGFP, mEYFP and eDHFR are fused, and also has good orthogonality to other fluorescent proteins.

The test system of another experiment is eDHFR and HaloTag. The experiment can be described thus: TMP-Cl induced targeting of Rac1 to plasma membrane (eDHFR/HaloTag). The following applies: TMP-Cl 10 μM, 1 h, excess washed off 30 min, HeLa.

Turning to `COc1cc(Cc2cnc(N)nc2N)cc(OC)c1OC` [TMP, trimethoprim], the “reversal of Rac1 localization and morphology change” value with Rac1 (10 μM TMP) was “completely reversed”. Also, the “average area of cells after TMP addition” value in the experiment with Rac1 (10 μM TMP after cRGT) is “decreased significantly”. Also, in the experiment on EGFP in HeLa cells, the “reversal of Golgi localization” value is recorded as “also rapidly reversible” and the “reversal of mitochondrial localization” value is reported as “rapidly reversible”. Also, the “reversal of mEYFP localization” value in the experiment with mEYFP is on record as “rapidly reversible”.

With `COc1cc(Cc2cnc(N)nc2N)cc(OC)c1OCCOCCOCCOCCOCCOCCCCCCCl` [TMP-Cl], the PCC of colocalization entry in the experiment with eDHFR and HaloTag is on record as “around 0.7”.

(Values after US20230414776A1, “Small Molecule-Nanobody Conjugate Inducers of Proximity (SNACIP) and Preparation Methods and Use thereof” (Harbin Institute of Technology, priority 2022, published 2023).)
